Results as given in patent publication US20100068747A1, “Generic Assay for Monitoring Endocytosis” (Evotec Technologies GmbH, priority 2005, published 2010).
Entries after “also recorded” stand apart in the source; their conditions may differ.

How the values were obtained:
[1] = system: CHO/PAR-2 cells; test: Lectin labeling of fixed cells, CHO/PAR-2; format: cell-based; conditions: TRITC-lectin 10 nM and 20 nM
Description: Lectin labeling of fixed cells was conducted as follows: To detach confluent cells in order to prepare experiments for internalization studies, cells were always treated with EDTA solution instead of trypsin solution. For all seeding, washing, and labeling steps in 96-well plates a working volume of 100 μl per well was assessed. Cells were seeded out into a 96-well plate at different concentrations. U2OS/ETAR-GFP suspensions were adjusted to yield 2*10^4 cells/well, both of the CHO cell lines must be at 2.5*10^4 cells/well. Cells became confluent after 24 hours of incubation. In the following, they were washed with phosphate buffered saline (PBS) and fixed with 3% PFA for 20 minutes at RT. Then, cells were washed again with PBS and incubated in 10 nM and 20 nM solutions of each TRITC-lectin candidate in PBS, respectively. Again, cells were washed with PBS to remove excess lectin, and wells were refilled with PBS for analysis. For specificity controls, lectin solutions were incubated for 30 minutes prior to the application with an excess of the monosaccharide that represents the respective glyco-epitope.
The following microscopy and image analysis techniques were employed. When utilizing the epifluorescence microscope magnifications were adjusted according to the purpose of observation, e.g. single cell vs. cell collective. Concerning the filters U-MNU was used for Hoechst, U-MSWB for GFP, and U-N41007 for TRITC detection. Hoechst images were taken at 50 ms exposure time, GFP images at 100 to 200 ms and TRITC images needed 500 to 1000 ms. Overlay images were assembled with AnalySIS and tuned in color intensity to obtain the desired color contrast. Images taken to compare two experimental conditions, e.g. control vs. stimulus, featured identical exposure parameters. If possible, well areas were chosen that reflect similar states of confluence. Utilizing the Opera confocal fluorescence imager, the instrument was calibrated running standard methods for skew cropping (spatial camera alignments) and camera intensity normalization.

[2] = biological target: T1, endothelin A receptor (ETAR) (Homo sapiens, UniProt P25101); test: Lectin labeling of live cells with receptor targeted stimulation, CHO/ETAR; format: cell-based, Chinese hamster; conditions: endothelin 1 stimulation
T1 construct: expressed in transfected cells; host or cells: CHO-K1 cell line clone #19, prepared in-house
T1 sequence (P25101 21-427): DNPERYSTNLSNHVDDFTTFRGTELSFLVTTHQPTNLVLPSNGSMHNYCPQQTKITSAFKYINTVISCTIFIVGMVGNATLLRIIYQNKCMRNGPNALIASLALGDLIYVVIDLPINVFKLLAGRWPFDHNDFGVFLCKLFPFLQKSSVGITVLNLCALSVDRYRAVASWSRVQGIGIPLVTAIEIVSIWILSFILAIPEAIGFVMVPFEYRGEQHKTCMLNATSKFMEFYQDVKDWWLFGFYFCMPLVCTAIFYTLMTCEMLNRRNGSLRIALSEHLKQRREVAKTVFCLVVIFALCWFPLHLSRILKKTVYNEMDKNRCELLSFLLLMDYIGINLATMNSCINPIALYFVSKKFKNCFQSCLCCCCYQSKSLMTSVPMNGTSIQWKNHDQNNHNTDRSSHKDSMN
Description: With regard to lectin labeling of live cells with receptor target stimulation, lyophilized PAR-2 peptide was resuspended in 20 mM HEPES with 0.1% BSA at 4 mM. […] The live cell labeling protocol was applied as described above. Additionally, endothelin and PAR-2 agonist peptide were added to the assay medium employed after the lectin labeling step at concentrations of 40 nM and 100 μM, respectively. For controls, same amount of resuspension liquid without agonist was supplemented. Instantly, fluorescence signals were monitored.

[3] = system: CHO/PAR-2 cell membrane protein; test: Lectin blotting of PAR-2 membrane sample; format: binding
Description: Membrane preparation was conducted as follows: Cells were cultured in five T175 flasks until confluency. Confluent cells were detached by applying 3 ml of EDTA solution onto the PBS washed cells. Following a 20-minute incubation at 37° C. and 5% CO2, cells were resuspended in 12 ml of starvation medium (standard medium without FCS), counted, and centrifuged in a Heraeus Megafuge 1.0R at 133 rcf for 4 minutes. All subsequent steps were carried out on ice and with ice cold solutions. After unification of all pellet fractions, hypotonic lysis buffer was added to the cells at a ratio of 1 ml per 5*10^7 cells. Additionally, protease inhibitor cocktail was added to 50 μl per 5*10^7 cells. Cells were homogenized with 30 strokes in a 5 ml potter on ice, centrifuged at 4° C. and 917 rcf for 10 minutes, and the supernatant was stored in an ultracentrifuge tube on ice. The pellet fraction was homogenized and centrifuged once again as described above. The supernatants of both procedures were unified and centrifuged at 4° C. and 100,000 rcf for 45 minutes in a Sorvall ultra-centrifuge. The supernatant of this centrifugation procedure was withdrawn and the pellet dissolved in 0.5 ml or 1.0 ml modified SDS PAGE loading buffer containing Tris-HCl, SDS, glycerol, but no β-mercapto-ethanol or dyes and stored in small aliquots of 50 μl at −20° C.
SDS-Page of membrane samples was conducted as follows: Discontinuous 12% polyacrylamide gels were prepared according to a standard protocol. Broad range marker and 25 μg membrane protein were mixed 1:1 with loading buffer and loaded five times onto a mini gel in alternating order. The gels were run at U=100 V for the first 20 minutes. Subsequently, voltage was increased to U=150 V. The run was aborted as soon as the pyronin G band reached the end of the gel. For coomassie staining, gels were put in coomassie staining solution on a shaker at low revolutions for 45 min. The staining solution was removed and the gel incubated with destaining solution for one to two hours, exchanging the solution several times until the desired contrast was obtained.
Blotting of membrane samples was conducted as follows: For blotting, 3 mm packs of Whatman papers were extensively soaked in one of the diverging blotting buffers, AB I, AB II, and CB, and a pile was assembled in a semi-dry Trans-Blot 3D system from Bio-Rad as depicted in the sketch of FIG. 2. Hybond nitrocellulose membrane was submerged in AB II prior to assembly. To smooth out any air bubbles from the pile, a Pasteur pipette was rolled several times over the top layer. The apparatus was closed and ran at U=25 V for 45 minutes. Then, the pile was disassembled, the membrane submerged in Ponceau S solution and gently swayed for 2 minutes. For destaining, ddH2O was substituted for the staining solution, and the membrane was briefly rinsed twice. After drying under ambient conditions, the marker bands were marked with a ballpoint-pen. The membrane was cut into slices each displaying one marker and one sample lane.
Probing of membrane samples was conducted as follows: For classical western blotting, membranes were blocked in PBS containing 5% low fat dried milk powder. They were placed on a rotating shaker at low revolutions for 1 hour. Subsequently, membranes were sealed in plastic bags with blocking solution additionally containing 1 μg/ml anti-PAR-2 antibody (1:400) or 0.5 μg/ml of anti-ETAR antibody (1:500), depending on the respective recombinant cell type used for the sample. […]

- early spot formation, time after stimulation [2]: 20 to 30 min
Substance: succinylated Triticum vulgaris (wheat germ) agglutin [sWGA]
- Staining of CHO/PAR-2 [1]: signals clearly marking individual cells; also recorded: cell surface
- striking bands below 35 kDa ([3]; PAR-2 sample): at least nine
- band at the same height as the western band (55 kDa, anti-PAR-2) ([3]; biotinylated lectin 5 μg/ml): one at the same height as the western band; also recorded: intense band
- bands detected above 35 kDa ([3]; biotinylated lectin 5 μg/ml, exposure one to five minutes): two
